“Also recorded” adds a separate entry of the source. Where two headings read alike, the source gives them in different places.
Experiments:
[1] = Vitrification of CPA laden solutions: opacity after plunging the device into liquid nitrogen; format: physicochemical
Excerpt: One convenient way for determining non-vitrification is the appearance of opacity as a result of ice formation when freezing solutions in a straw. If there is no visible opacity, it is called apparent vitrification. Although opacity could be easily identified in the traditional plastic straw using the naked eye, it is very difficult to do so for the quartz micro-capillary due to its small dimension. Therefore, an experimental setup shown in FIG. 10 was designed for visualization of opacity during cooling by directing two focused lights on the capillary held against a dark background for all the devices shown in FIG. 1 except the stainless steel micro-capillary. […] This setup was used to determine the threshold (minimum) CPA concentration required to completely avoid opacity during cooling. […] Various total CPA concentrations from 12% to 30% by volume with 2% increments were studied using both the open pulled straw and the thin walled quartz micro-capillary. Since 0.2-1 M sucrose or trehalose has been used in essentially all studies for cryopreservation of mammalian oocytes by both slow freezing and vitrification, further studies were also performed using the quartz micro-capillary for solutions with 0.5 M sucrose or trehalose plus 1.5 M, 2.0 M, and 2.5 M PROH, respectively. The solutions can be loaded into the open pulled straw and quartz micro-capillaries by capillary action while it can be expelled out of the capillaries by using a micro-syringe attached with a soft PEP polymer needle tip to push from the end of the capillaries with a bigger opening.

[2] = Critical cooling rate to achieve vitrification (Vcc) from Boutron's semi-empirical theory and DSC K4; format: physicochemical
Excerpt: The critical cooling rate to achieve vitrification (Vcc) is a function of the concentration of cryoprotectant. It has been extensively studied in the case of 1,2-propanediol and other alcohols with relevance in cryobiology, although mainly in the range of cooling rates achievable by differential scanning calorimetry (DSC) techniques. However, it is possible to obtain estimates of the critical cooling rates at other […]. The presence of sugars in equimolar concentrations has shown to have no effect on Vcc in the case of monosaccharides and little effect in the case of sucrose for the concentration used in these studies (0.3 M)(Kuleshova et al., Cryobiology 38: 199-130, 1999). The Vcc can be inferred from Boutron's semi-empirical theory of glass forming tendency (Boutron, Cryobiology 23:88-102, 1986); it is given by:
To is the initial temperature of crystallization and xg is the amount of ice formed at the critical cooling rate. Many studies in the literature consider a solution to be vitrified when xg≦10^−6 (Liu and McGrath, Proc. 2005 IEEE Eng. Med. Biol. 27th Ann. Conference, p. 7501-7504, 2005). K4 is a constant dependent of the solution and can be determined by DSC. Although there is not data for K4 in the available literature for our solution, some estimation can be done. The values of K4 for 40%, 37.5% and 35% (w/w) of aqueous solutions of 1,2 propanediol are 24.1° C./min, 54.1° C./min and 151° C./min (Ren et al., Cryobiology 31:47-56, 1994). These values of K4 give rise to Vcc values of 8.0×10^2° C./min, 1.8×10^3° C./min and 5.0×10^3° C./min, respectively. So, a tentative value of […] for 1.8 M of 1,2-propanediol is 10^4° C./min. […] The exponential fitting of the data is justified by the theory (Ren et al., supra).

[3] = test system: murine embryonic stem (ES) cells; assay: Attachment efficiency of ES cells post vitrification; format: cell-based; settings: 0.5 M trehalose, 2 M PROH, alone or combined; QMC, liquid nitrogen; day 1
Experimental: On the day of experiment, the attached cells were lightly trypsinized for 3-5 minutes and collected. The cells were pelleted at 100×g for 5 minutes and resuspended in cold stem cell media supplemented with 1.5 M 1,2-propanediol (Sigma, St Louis, Mo.) and incubated on ice for 10 minutes. The cells were then spun down at 100×g for 3-5 minutes and resuspended in 1 ml first vitrification solution for 10 minutes. The cells were then spun down at 100×g for 3-5 minutes and resuspended in the second solution at 10×10^6/ml for another 10 minutes. The first vitrification solution was made of ES cell maintenance medium supplemented with 1.5 M 1,2-propanediol, while the second solution was supplemented with 2 M 1,2-propanediol and 0.5 M trehalose (Ferro Pfanstiehl Laboratories, Inc., Waukegan, Ill.). Cells were also cryopreserved using either 0.5 M trehalose or 2 M 1,2-propanediol only for comparison. […]
Cell attachment and growth was determined by counting the number of cells per field under a 10× objective. […] The attachment efficiency was calculated as the ratio of the total number of cells per field of a cryopreserved sample to that of the control non-frozen sample at day 1. To assess the proliferation of the attached cells, the total number of cells per field was further monitored for 4 days.

primary rat hepatocytes = assay: Hepatocyte viability post-cryopreservation in QMC, exclusion of trypan blue; format: cell-based; settings: 1.5 M PROH, 0.3 M sucrose, or both, immediately post-cryopreservation
Experimental: The vitrification technique was also tested using primary liver cells (hepatocytes) due to their sensitivity to stress, and importance in liver tissue engineering and availability. The cell viability of hepatocytes was determined immediately post-cryopreservation in quartz micro-capillaries (QMC) in the presence of either no CPA; 0.3 M sucrose; 1.5 M 1,2-propanediol (PROH); 1.5 M PROH and 0.3 M sucrose; or 2.0 M PROH and […]. The number of viable cells was determined in both vitrified samples as well as non-vitrified controls (i.e., no freezing). Cell viability was quantified by the exclusion of trypan blue. […] There was only ˜35% survival for cells loaded with 1.5 M PROH prior to cryopreservation. Sucrose (0.3 M) was then added to the cryopreservation solution with 1.5-2 M PROH. […] When 0.3 M sucrose was added to the cryopreservation solution, the immediate viability jumped to ˜75%.

mouse oocytes = assay: Survival and morphology of mouse oocytes after vitrification in quartz capillaries; format: cell-based
Experimental: The 6-week-old B6D2F1 female mice were superovulated with 7.5 IU of pregnant mare serum gonadotrophin (Sigma-Aldrich, St. Louis, Mo., USA) and 7.5 IU of human chorionic gonadotrophin (Sigma-Aldrich) given by intraperitoneal injections 48 h apart. Fourteen hours after human chorionic gonadotrophin injection, females were anaesthetized with avertin (Sigma-Aldrich) then killed by cervical dislocation and their oviducts were removed. The cumulus-oocytecomplex was released from the ampullary region of each oviduct by puncturing the oviduct with a 27-gauge needle. Cumulus cells were removed by exposure to hyaluronidase (80 IU/ml) (Irvine Scientific, Santa Ana, Calif., USA) for 3 min and washed three times with human tubal fluid (HTF) medium (Irvine Scientific) with 10% fetal bovine serum (FBS; Gibco, Carlsbad, Calif., USA). Oocytes were transferred and cultured in HTF medium (Quinn et al., 1995) containing 10% FBS at 37° C. and 5% CO2 in air until they were vitrified.
All cryoprotectant solutions were filter-sterilized and stored at 4° C. prior to use. The base cryoprotectant solutions used were PrOH (Sigma-Aldrich) and trehalose (Ferro Pfanstiehl Laboratory, Waukegan, Ill., USA). The concentrations and types of cryoprotectants used were similar to those used in traditional slow-freezing protocols for human oocytes (Gook and Edgar, 2007) and are not typically vitrifiable. For vitrification, isolated mature oocytes were placed into HTF medium supplemented with 10% FBS. Two vitrification protocols using a HEPES-buffered physiological salt solution (FHM; Specialty Media, Lavallette, N.J., USA) (Lawitts and Biggers, 1993) as a base medium were tested. In the first protocol, the oocytes were equilibrated in a 30 μl droplet of 0.75 mol/l PrOH in FHM20 (FHM medium containing 20% FBS) for 5 min, then transferred to a 30 μl droplet of 0.5 mol/l trehalose+1.5 mol/l PrOH in FHM20 for 5 min.
In the second protocol, oocytes were equilibrated in a 30 μl droplet of 0.75 mol/l PrOH in FHM20 for 5 min, then equilibrated in a 30 μl droplet of 1.5 mol/l PrOH in FHM20 for 5 min before being transferred to a 0.5 mol/l trehalose 2.0 mol/l PrOH in FHM20, for 5 min. The QC straws (The Charles Supper Company, USA) used for vitrification have an outer and inner diameter of approximately 0.2 and 0.18 mm, respectively, and a wall thickness of 0.01 mm (He et al., 2008). After exposure to the vitrification solution, the oocytes were then loaded into the 200 μm QC and plunged into liquid or slush nitrogen for comparison. For warming, the vitrified oocytes were immediately immersed in a holding medium containing 0.2 mol/l trehalose in […]phosphate-buffered saline (PBS; Gibco) at 37° C. for 1 minute. […]

[4] = cited from earlier work
[5] = both open pulled straw and quartz micro-capillary

## CC(O)CO (stereo not drawn) [1,2-Propanediol (PROH), 1,2-propanediol]
[1]; 1 M (7% v) 1,2-propanediol in FHM
  appearance of the loaded quartz micro-capillary after plunging into liquid nitrogen: opaque; also recorded: whitish appearance
[1]; 2 M (14% v) 1,2-propanediol in FHM
  appearance of the loaded quartz micro-capillary after plunging into liquid nitrogen: clear appearance
[1]; [5]
  threshold concentration lower than that of ethylene glycol (EG): ~5 % v
  threshold concentration lower than that of the combination of EG and PROH in a 1:1 ratio: 2.5 % v
[1]; micro-capillary, liquid nitrogen
  threshold concentration for the complete absence of opacity: ~2 M
[2]; 1.8 M
  K4, tentative value: ~10^4 ° C./min
[2]; 35% (w/w) aqueous solution
  critical cooling rate to achieve vitrification (Vcc): 5.0×10^3 ° C./min
[2]; 37.5% (w/w) aqueous solution
  critical cooling rate to achieve vitrification (Vcc): 1.8×10^3 ° C./min
[2]; 40% (w/w) aqueous solution
  critical cooling rate to achieve vitrification (Vcc): 8.0×10^2 ° C./min
[3]
  attachment efficiency (normalized to control): minimum amount of cells can attach
Primary rat hepatocytes
  cell survival, immediate viability: ~35%
Mouse oocytes; liquid nitrogen, 1.5 mol/l PrOH + 0.5 mol/l trehalose in FHM20, QC
  Surviving oocytes: 18/40 (45.0) %
Mouse oocytes; liquid nitrogen, 2.0 mol/l PrOH + 0.5 mol/l trehalose in FHM20, QC
  Surviving oocytes: 19/40 (47.5) %
Mouse oocytes; slush nitrogen, 1.5 mol/l PrOH + 0.5 mol/l trehalose in FHM20, QC
  Surviving oocytes: 36/40 (90.0) %
Mouse oocytes; slush nitrogen, 2.0 mol/l PrOH + 0.5 mol/l trehalose in FHM20, QC
  Surviving oocytes: 28/40 (70.0) %
[4]; 35% (w/w) aqueous solution
  K4: 151 ° C./min
[4]; 37.5% (w/w) aqueous solution
  K4: 54.1 ° C./min
[4]; 40% (w/w) aqueous solution
  K4: 24.1 ° C./min

## OCCO [Ethylene glycol (EG), ethylene glycol]
[1]
  threshold concentration for the complete absence of opacity: ~4 M

## OC[C@H]1O[C@@](CO)(O[C@H]2O[C@H](CO)[C@@H](O)[C@H](O)[C@H]2O)[C@@H](O)[C@@H]1O [sucrose]
Primary rat hepatocytes
  cell survival, immediate viability: less than 10%

## OC[C@H]1O[C@H](O[C@H]2O[C@H](CO)[C@@H](O)[C@H](O)[C@H]2O)[C@H](O)[C@@H](O)[C@@H]1O [trehalose]
[3]
  attachment efficiency (normalized to control): minimum amount of cells can attach
